Experimental data reported in patent US6472392B1, “Triazole compounds and the use thereof as dopamine-D3 -ligands” (Abbott Laboratories, priority 1997, dated 2002).

Row | melting point [°C] | Structure (SMILES)
1 | 156 to 161 | Cn1c(C=CCCN2CCN(c3cc(C(C)(C)C)nc(C(C)(C)C)n3)CC2)nnc1-c1ccccc1 [Example 21, 3-{4-[4-(2,6-Di-t-butylpyrimidin-4-yl)piperazin-1-yl]but-1-enyl}-4-methyl-5-phenyl-1,2,4-(4H)-triazole]
2 | 144 to 145 | Cn1c(CCCCN2CCN(c3cc(C(C)(C)C)nc(C(C)(C)C)n3)CC2)nnc1-c1ccccc1 [Example 22, 3-{4-[4-(2,6-Di-t-butylpyrimidin-4-yl)piperazin-1-yl]butyl}-4-methyl-5-phenyl-1,2,4-(4H)-triazole]
